Results published in patent publication US20220008563A1, “RADIOLABELLED AND NONRADIOLABELLED PEGYLATED COMPOUNDS AND USES THEREOF” (The Regents of the University of California, priority 2020, published 2022).

Columns and labels:
Aβ plaques [1] = test: ^125I-IAZA brain autoradiography in postmortem human AD brain; format: binding; details: anterior cingulate
Excerpt: FIG. 22A-F provides the results of brain autoradiography in postmortem human brain from an Alzheimer patient using ^125I-IAZA and ^124I-IAZA. (A) AD brain slice showing gray matter (GM), anterior cingulate and white matter (WM) corpus callosum. […] (D) AD brain cortex slice showing gray matter on the left edges. (E)-(F) ^125I-IAZA binding in the outer regions containing gray matter which is consistent with Tau buildup.

human Aβ plaques = human Aβ plaques (Homo sapiens, UniProt P05067); test: In vitro binding affinity in human AD brain slices using [^3H]PIB; details: human AD brain slices (anterior cingulate, corpus callosum)
Method: Analytical thin-layer chromatography (TLC) was used to monitor reactions (Baker-flex, Phillipsburg, N.J., USA). RadioTLC were scanned on an AR-2000 imaging scanner (Eckart & Ziegler, Berlin, Germany). Electrospray mass spectra were obtained from a Model 7250 mass spectrometer (Micromass LCT). Proton NMR spectra were recorded on a Bruker OM EGA 500-MHz spectrometer. Tritium was assayed by using a Packard Tri-Carb Liquid scintillation counter with 65% efficiency. Human postmortem brain tissue samples were obtained from Banner Sun Health Research Institute, Sun City, Ariz. brain tissue repository for in vitro experiments. Age and gender matched AD brain and cognitively normal (CN) brain tissue samples selected for end-stage pathology (Braak & Braak stage of VI; Braak and Braak 1991). Human postmortem brain slices were obtained from chunks of frozen tissue on a Leica 1850 cryotome cooled to −20° C. Tritium and iodine-125, and fluorine-18 autoradiographic studies were carried out by exposing tissue samples on storage phosphor screens (Perkin Elmer Multisensitive, Medium MS and tritium sensitive phosphor screens). The apposed phosphor screens were read and analyzed by OptiQuant acquisition and analysis program of the Cyclone Storage Phosphor System (Packard Instruments Co., Boston, Mass.). […]

Aβ plaques [2] = details: hippocampal AD brain sections; cited from earlier work
MAO-A = biological target: T1, MAO-A (Homo sapiens, UniProt P21397); test: Effect of drugs on the binding of [^18F]FAZIN3 in postmortem human brain sections; details: for selectivity of binding for MAO-A versus MAO-B: by use of clorgyline (MAO-A inhibitor) and deprenyl (MAO-B inhibitor)
T1 construct: tissue Banner Sun Health Research Institute; host or cells: postmortem human anterior cingulate / corpus callosum sections (CN, AD, PD subjects)
T1 sequence (P21397 1-527): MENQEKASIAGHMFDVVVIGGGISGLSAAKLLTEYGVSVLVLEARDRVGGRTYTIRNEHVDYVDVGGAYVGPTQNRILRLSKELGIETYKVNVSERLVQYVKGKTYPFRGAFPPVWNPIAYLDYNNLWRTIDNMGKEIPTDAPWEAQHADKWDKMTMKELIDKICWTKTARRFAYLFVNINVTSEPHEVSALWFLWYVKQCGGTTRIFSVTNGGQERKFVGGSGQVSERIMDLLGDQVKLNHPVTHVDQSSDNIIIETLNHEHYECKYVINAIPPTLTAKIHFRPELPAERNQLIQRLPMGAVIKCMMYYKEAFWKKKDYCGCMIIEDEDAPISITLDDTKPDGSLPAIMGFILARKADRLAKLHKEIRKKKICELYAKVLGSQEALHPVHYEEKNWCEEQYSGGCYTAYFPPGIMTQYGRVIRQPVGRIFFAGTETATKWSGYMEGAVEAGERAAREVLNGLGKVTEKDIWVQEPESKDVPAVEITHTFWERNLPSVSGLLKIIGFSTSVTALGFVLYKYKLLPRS
Method: MK-6240 (10 μM) was used since it is known to bind to Tau. […] The slides containing the sections (10 μm thick) were preincubated in PBS buffer for 15 minutes in eight different slide chambers (one total binding and seven with the different drugs). The preincubation PBS buffer was discarded and appropriate amount of each drug (dissolved in ethanol) was added to the chambers with the slides. […] The chambers were incubated at 25° C. for 1.25 h. The slides were then washed with cold PBS buffer twice, and cold water, respectively. The slides with the brain sections were air dried, exposed overnight on a phosphor film, and then placed on the Phosphor Autoradiographic Imaging System/Cyclone Storage Phosphor System (Packard Instruments Co).

Tau protein [3] = test: [^125I]IPPI / [^124I]IPPI autoradiography of postmortem AD brain slices; format: binding, human
Method: FIG. 18A-H: provides the results of [^125I]IPPI competitive binding assay with various inhibitors. (A) Postmortem human brain 10 μm thick sections (from two AD subjects, 11-107 and 11-38) of anterior cingulate (AC) grey matter (arrows showing GM) and corpus callosum (CC) white matter (WM). (B) [^125I]IPPI binding to grey matter, AC with low nonspecific binding in white matter, CC. […] (E) BrPPI, 10 μM effect on [^125I ]IPPI binding. (F) MK-6240, 10μM effect on [^125I]IPPI binding. (G) Immunostaining of 11-38 with Dako A0024 for total Tau; (i) picture of entire slice and (ii) magnification (x10) of box in (i). (H) Plot comparing GM and WM in the two AD subjects with different drugs.

Aβ plaques [4] = test: Postmortem human brain autoradiography of [^18F]Flotaza in AD subjects; format: binding
Excerpt: Postmortem human brain autoradiography [^18F]Flotaza in AD subjects. Well characterized brain samples were obtained from Banner Health Research Institute. Brain slices from six AD subjects included anterior cingulate (gray matter, GM) and corpus callosum (white matter, WM) as shown for one subject in FIG. 24A. The AD brain sections of the six AD subjects were further confirmed to contain Aβ plaques in the GM regions by immunostaining with anti-Aβ Biolegend (known to stain Aβ1-16) as shown in FIG. 24B.
It must be noted that in these experiments, after [^18F]Flotaza binding, the slices were washed with 50% alcohol in PBS buffer.

Tau protein [5] = biological target: Tau protein (Homo sapiens, UniProt P10636); test: In vitro binding in human AD brain slices using [^125I]IPPI; details: [^125I]IPPI labeled human AD brain slices
Method: Assessing the binding specificity of Flotaza. In vitro binding affinity of Flotaza in human AD brain slices using [^3H]PIB for Aβ plaques and [^125I]IPPI for Tau were carried out. […] Thus, Flotaza is a selective Aβ plaque agent.

Chain of human Aβ plaques (P05067 672-713): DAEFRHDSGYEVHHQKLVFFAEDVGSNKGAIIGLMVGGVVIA
Chain of Tau protein (Homo sapiens, UniProt P10636) (P10636 with tags, fused parts or gaps): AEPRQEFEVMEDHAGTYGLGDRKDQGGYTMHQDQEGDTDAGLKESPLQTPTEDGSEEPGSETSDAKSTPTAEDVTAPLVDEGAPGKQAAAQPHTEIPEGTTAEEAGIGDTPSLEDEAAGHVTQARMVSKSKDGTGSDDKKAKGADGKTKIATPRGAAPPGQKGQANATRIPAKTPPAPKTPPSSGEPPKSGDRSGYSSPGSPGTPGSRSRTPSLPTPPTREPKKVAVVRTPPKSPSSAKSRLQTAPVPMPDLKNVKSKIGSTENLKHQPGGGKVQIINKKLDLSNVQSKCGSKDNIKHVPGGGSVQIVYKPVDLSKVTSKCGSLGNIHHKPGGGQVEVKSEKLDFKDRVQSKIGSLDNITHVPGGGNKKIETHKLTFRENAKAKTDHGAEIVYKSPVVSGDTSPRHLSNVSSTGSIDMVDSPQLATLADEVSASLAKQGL

## CN(C)c1ccc(N=Nc2ccc([125I])cc2)cc1 [^125I-IAZA]
Aβ plaques [1]
  binding in gray matter of AD brain slices: binding in the gray matter regions

## CNc1ccc(N=Nc2ccc(N(C)C)cc2)cc1 [TAZA]
Human Aβ plaques
  Ki: 0.54 nM

## [11CH3]Nc1ccc(-c2nc3ccc(O)cc3s2)cc1 [[^11C]PIB]
Aβ plaques [2]
  GM/WM ratios: lower GM/WM ratios

## 4-O-[^18F]FluoroPEG3-2-(1H-pyrrolo[2,3-c]pyridine-1-yl)pyridine [[^18F]FAZIN3]
MAO-A
  selectivity of binding for MAO-A versus MAO-B: selective MAO-A binding

## Nc1c(F)ccc2cnc(-n3ccc4ccncc43)cc12 [MK-6240, reference compound]
MAO-A; drug 10 μM, human brain sections
  displacement (inhibition) of [^18F]FAZIN3 binding: did not have much effect

## [125I]c1ccc2cnc(-n3ccc4ccncc43)cc2c1 [[^125I]IPPI, 6-[^125I]iodo-3-(1H-pyrrolo[2,3-c]pyridine-1-yl)isoquinoline]
Tau protein [3]; MAO inhibitors at <1 μM concentrations
  sensitivity of binding to MAO inhibitors: resistance to MAO inhibitors
Tau protein [3]; postmortem AD brain slices
  binding to Tau protein / neurofibrillary tangles in Alzheimer's disease brain grey matter: Excellent binding

## CN(C)c1ccc(N=Nc2ccc(OCCOCCOCC[18F])cc2)cc1 [[^18F]Flotaza]
Aβ plaques [4]; anterior cingulate, AD subjects
  binding in the grey matter regions of AD subjects: Extensive binding
Aβ plaques [4]; six AD subjects, slices washed with 50% alcohol in PBS buffer
  ratio between gray matter and white matter binding: > 100

## CN(C)c1ccc(N=Nc2ccc(OCCOCCOCCF)cc2)cc1 [Flotaza]
Tau protein [5]
  effect on the binding of [^125I]IPPI: did not have any significant effect

## CNc1ccc(-c2nc3ccc(O)cc3s2)cc1 [PIB, reference compound]
Aβ plaques [4]; AD brain sections treated with the drug
  effect on grey matter binding of [^18F]Flotaza: significantly reduced

## FCCOCCOCCOc1ccnc(-n2ccc3ccncc32)c1 [FAZIN3, 4-O-FluoroPEG3-2-(1H-pyrrolo[2,3-c]pyridine-1-yl)pyridine]
MAO-A
  selectivity of binding for MAO-A versus MAO-B: selectively bound to MAO-A
